In patent US20050065068A1, “Methods and compositions for reducing serum phosphate levels” (priority 1999, published 2005):
Non-standard residues stand in square brackets, D forms with d. Residues, ends and D or L forms follow the SMILES beside them. No end group written: not given here. pS = N[C@@H](COP(=O)(O)O)C(=O)O

What was measured:
[1] = test system: ovariectomized female Sprague Dawley rats; assay: Serum and urine chemistry in the ovariectomized rat osteoporosis model; type: in vivo; details: OVX rats; for Serum Ca^2+ / Urine Ca^2+ / Serum AP (serum alkaline phosphatase) / Serum Pi (serum inorganic phosphate): 200-208 μg/kg peptide oral daily for 84 days; for Serum Ca^2+ / Serum AP (serum alkaline phosphatase) / Serum Pi (serum inorganic phosphate): terminal sample Day 84
Description: Ovariectomized rats were chosen for the efficacy study of a series of peptides. After a six (6) day quarantine/acclimation period, forty (40) ovariectomized female Sprague Dawley outbred (Crl:CD®IGS BR) rats were randomly allocated into five experimental groups of eight animals each. A sixth group was composed of eight sham-operated Sprague Dawley rats. The experimental design consisted of four test-article groups and two vehicle control groups (one ovariectomized and one sham-operated). Each rat received a single daily oral dose for 84 days of either 0.9% Sodium Chloride for Injection (controls) or 200-208 μg/kg of peptide as specified in Table 1. Doses were based upon a target dose of 50 μg/animal/day and group mean body weights determined at study initiation (Day 0). “Sham” indicates sham-operated rats; and “OVX” indicates ovariectomized rats. The dose range of 200-208 μg/kg/day employed in the study represents the target dose (50 μg/animal/day) in animals weighing […] at study initiation. The test samples for groups 1, 2, 3, and 4 were dissolved in 0.9% Sodium Chloride for injection and administered at once. All dosing was accomplished by oral gavage (dose volume 1.0-1.5 mL, adjusted weekly for bodyweight gain). Certified Rodent Diet #5002 (Purina Mills, Inc., St. Louis, Mo.) was provided during the quarantine/acclimation period and throughout the study. Clinical signs were observed once daily throughout the quarantine/acclimation and treatment periods. Individual body weights were recorded at the initiation of the dosing, once weekly throughout the treatment phase, and at necropsy. Animals were sacrificed approximately 24 hours after the administration of the final dose (Day 84). Terminal whole blood samples were collected from each animal for serum chemistry (i.e. measurement of serum calcium and phosphorus) evaluations via terminal cardiocentesis. Femurs were submitted for post-mortem bone mechanical strength and composition analysis.

[2] = test system: ovariectomized female Sprague Dawley rats; assay: Three-point bending mechanical strength test of the femur in the ovariectomized rat osteoporosis model; type: in vivo; details: right femur, Day 84, vs. Group 5
Description: Ovariectomized rats were chosen for the efficacy study of a series of peptides. After a six (6) day quarantine/acclimation period, forty (40) ovariectomized female Sprague Dawley outbred (Crl:CD®IGS BR) rats were randomly allocated into five experimental groups of eight animals each. A sixth group was composed of eight sham-operated Sprague Dawley rats. The experimental design consisted of four test-article groups and two vehicle control groups (one ovariectomized and one sham-operated). Each rat received a single daily oral dose for 84 days of either 0.9% Sodium Chloride for Injection (controls) or 200-208 μg/kg of peptide as specified in Table 1. Doses were based upon a target dose of 50 μg/animal/day and group mean body weights determined at study initiation (Day 0). “Sham” indicates sham-operated rats; and “OVX” indicates ovariectomized rats. The dose range of 200-208 μg/kg/day employed in the study represents the target dose (50 μg/animal/day) in animals weighing […] at study initiation. The test samples for groups 1, 2, 3, and 4 were dissolved in 0.9% Sodium Chloride for injection and administered at once. All dosing was accomplished by oral gavage (dose volume 1.0-1.5 mL, adjusted weekly for bodyweight gain). Certified Rodent Diet #5002 (Purina Mills, Inc., St. Louis, Mo.) was provided during the quarantine/acclimation period and throughout the study. Clinical signs were observed once daily throughout the quarantine/acclimation and treatment periods. Individual body weights were recorded at the initiation of the dosing, once weekly throughout the treatment phase, and at necropsy. Animals were sacrificed approximately 24 hours after the administration of the final dose (Day 84). Terminal whole blood samples were collected from each animal for serum chemistry (i.e. measurement of serum calcium and phosphorus) evaluations via terminal cardiocentesis. Femurs were submitted for post-mortem bone mechanical strength and composition analysis. The right femur of each animal was reserved for bone mechanical strength evaluation (i.e. three-point bending analysis). Femurs were placed on an apparatus in which two isolated points of the long bone were supported. Weight load was applied at the center of two supporting points toward the direction in which the bone is bent. […] Femurs were positioned with the anterior side toward the center load, and the posterior side toward the two supports. The loading was done in an Instron Model #1122 materials testing machine (Canton, Mass.). Testing was conducted with a displacement of 2.0 mm/minute. Load and displacement were recorded at 0.002 mm displacement intervals. Experiments were controlled using a computer-based data acquisition system running ASYST Scientific Software (Keithley-Metrabyte; Taunton, Mass.). The following data were generated: Maximum Load (in Newton, N); Initial Stiffness (in N/mm); Energy at Maximum (in Nmm) The value of the load was plotted against the deflection generating the load-deflection curve. Two points in the initial linear portion of the load-deflection curve were chosen by the operator at the time of testing. A line was constructed through the chosen points, the slope of which is the initial stiffness. The maximum load is the largest value of the load recorded during the flexural test. The energy at maximum is the area under the load-deflection curve up to the maximum load point.

Compound: N[C@@H](COP(=O)(O)O)C(=O)NCC(=O)N[C@@H](COP(=O)(O)O)C(=O)NCC(=O)N[C@@H](COP(=O)(O)O)C(=O)NCC(=O)N[C@@H](COP(=O)(O)O)C(=O)NCC(=O)N[C@@H](COP(=O)(O)O)C(=O)NCC(=O)N[C@@H](COP(=O)(O)O)C(=O)NCC(=O)N[C@@H](COP(=O)(O)O)C(=O)NCC(=O)O [(Pse-Gly)7, Pse-Gly-Pse-Gly-Pse-Gly-Pse-Gly-Pse-Gly-Pse-Gly-Pse-Gly] (H-[pS]G[pS]G[pS]G[pS]G[pS]G[pS]G[pS]G-OH)
- Serum Ca^2+ [1]: 11.0 ± 0.5 mg/dL

Compound: N[C@@H](CO)C(=O)NCC(=O)N[C@@H](CO)C(=O)NCC(=O)N[C@@H](CO)C(=O)NCC(=O)N[C@@H](CO)C(=O)NCC(=O)N[C@@H](CO)C(=O)NCC(=O)N[C@@H](CO)C(=O)NCC(=O)N[C@@H](CO)C(=O)NCC(=O)O [(Ser-Gly)7, Ser-Gly-Ser-Gly-Ser-Gly-Ser-Gly-Ser-Gly-Ser-Gly-Ser-Gly] (H-SGSGSGSGSGSGSG-OH)
- Urine Ca^2+ [1]: 26.7 ± 22.9 mg/dL
- Serum AP (serum alkaline phosphatase) [1]: 134 ± 53 U/L
- Serum Ca^2+ [1]: 10.8 ± 0.6 mg/dL
- Serum Pi (serum inorganic phosphate) [1]: 8.8 ± 1.0 mg/dL

Compound: Ser-Gly-Ser-Gly-Pse-Gly-Pse-Gly-Pse-Gly-Pse-Gly-Pse-Gly (SGSG[pS]G[pS]G[pS]G[pS]G[pS]G) [(Ser-Gly)2(Pse-Gly)5, Linear peptide, Pse = O-phosphoserine]
- Urine Ca^2+ [1]: 29.5 ± 20.0 mg/dL
- Serum AP (serum alkaline phosphatase) [1]: 121 ± 30 U/L
- Serum Pi (serum inorganic phosphate) [1]: 9.2 ± 1.3 mg/dL
- Energy at maximum compared with saline-treated ovariectomized controls (FIG. 6) [2]: statistically significant increase
- Initial bone stiffness compared with saline-treated ovariectomized controls (FIG. 4) [2]: statistically significant increase
- Maximum load compared with saline-treated ovariectomized controls (FIG. 5) [2]: statistically significant increase

Compound: Ser-Gly-Ser-Gly-Ser-Gly-Ser-Gly-Ser-Gly-Pse-Gly-Pse-Gly (SGSGSGSGSG[pS]G[pS]G) [(Ser-Gly)5(Pse-Gly)2, Linear peptide, Pse = O-phosphoserine]
- Urine Ca^2+ [1]: 26.6 ± 14.1 mg/dL
- Serum AP (serum alkaline phosphatase) [1]: 118 ± 18 U/L
- Serum Pi (serum inorganic phosphate) [1]: 7.9 ± 0.9 mg/dL
- Serum phosphorus concentration compared with controls (FIG. 1) ([1]; oral daily for 84 days, Day 84, vs saline-treated OVX controls and sham-operated controls): equivalent to or even lower than sham-operated controls
- Energy at maximum compared with saline-treated ovariectomized controls (FIG. 6) [2]: statistically significant increase
- Initial bone stiffness compared with saline-treated ovariectomized controls (FIG. 4) [2]: statistically significant increase
- Maximum load compared with saline-treated ovariectomized controls (FIG. 5) [2]: statistically significant increase
